Here are results for one compound from patent US9750723B2, “Prevention and treatment of non-alcoholic fatty liver disease” (Ohio University, priority 2014, dated 2017).

One assay has as its system C57BL/6J mice on the HFD. As to the kind of experiment: Evaluation of phenylmethimazole in preventing NAFLD in mice (Example 2). Type of assay: in vivo. The protocol: Triglycerides were quantified in accordance with the following general protocol, based upon the Salmon and Flatt Method of Liver Saponification. 50-100 mg of liver tissue was placed into an Eppendorf tube and weighed. Equal volume per weight of 3 M KOH (in 65% EtOH) was added to the tube and vortexed. The tube was placed at 70° C. for 1 hr to activate digestion. The tubes were vortexed every 15 minutes. The tube was set at room temperature overnight to allow for complete digestion, and was vortexed periodically. The sample was diluted to a final concentration of 100 mg of liver tissue per 600 μl fluid; the sample was diluted by adding 2 M Tris-HCl (un-pHed) to a final concentration of 50 mM. Where a second dilution was required, the sample was diluted using 50 mM Tris-HCl (pH 7.5). Triglycerides-GPO (0.5 mL, liquid; Pointe Scientific Cat. No. T7532-500; Fisher Scientific, Pittsburgh, Pa.) were aliquoted into Eppendorf tubes and warmed in a 37° C. water bath for 5-10 minutes. Glycerol standards (0, 1, 2.5, 5, 7.5 and 10 mmol/L) were made by diluting 10 mmol/L stock of glycerol, such as, e.g., with 50 mM Tris-HCl. 5 μL of the sample and glycerol standards (0, 1, 2.5, 5, 7.5 and 10 mmol/L) were added to 0.5 mL of the triglycerides-GPO, mixed, and incubated at room temperature for 5 minutes. The mixture was then vortexed and added (200 μL) to each well of a 96-well flat-bottom ELISA plate (in duplicate). Absorbance (i.e., optical density) was read at 500 nm. The concentrations of the samples were determined via use of a plot of glycerol standards concentration (mmol/L) with respect to optical density (i.e., O.D.) at 500 nm. The concentration of glycerol (mg glycerol/g tissue) was then calculated and triglyceride concentration was determined, in accordance with calculations known to those of ordinary skill in the art.
Experimental Protocol. 7 week old male C57BL/6J mice were placed on either a LFD (i.e., having a fat content of 10%, N=8) or a HFD (i.e., having a fat content of 60%, N=40). The mice placed on the LFD served as a control. […]
After 18 weeks, all of the C57BL/6J mice were euthanized. […] More specifically, NAFLD was evaluated in the liver tissue of the euthanized C57BL/6J mice microscopically and molecularly. Following euthanasia, the liver of each mouse was removed and divided, wherein one portion was used for the microscopic analysis of NAFLD and another portion was used for the molecular analysis of NAFLD (i.e., quantification of triglycerides). Quantification of triglycerides was performed in accordance with the general protocol described in Example 1.

The subject of assay [1] is patient at risk for developing NAFLD. As to the kind of experiment: Therapeutic use of phenylmethimazole to prevent development of NAFLD (Example 4). The conditions noted are these: once daily oral dose of 1 mg/kg chronically, contemplated result. Type of assay: in vivo, human. The protocol:
Experimental Protocol. A patient at risk for developing NAFLD is prescribed phenylmethimazole to prevent excess accumulation of fat. The patient takes a once daily oral dose of 1 mg/kg of body weight of phenylmethimazole chronically, during which fat content in the liver is determined via liver function testing, liver ultrasound, and liver biopsy.

Assay [2] relates to C57BL/6J mice placed on an HFD. As to the kind of experiment: Evaluation of phenylmethimazole in treating NAFLD in C57BL/6J mice fed high fat diet (Example 3). Type of assay: in vivo. Particulars: HFD mice with NAFLD, ip once daily 1, 3 or 10 mg/kg/day for 16 weeks (up to 24 weeks); contemplated result. The protocol:
Experimental Protocol. C57BL/6J mice are placed on an HFD containing 60% fat (by % Kcal) (Diet #D12492, Research Diets, Inc.) for a period of weeks (as determined by the results of Example 1) until development of NAFLD is observed and clearly distinguishable from LFD-fed mice of the same age (between 4-8 weeks). At the time or after NAFLD is observed, once daily ip injections of phenylmethimazole (i.e., C10), DMSO, or sham are administered. 5 mice are then euthanized weekly thereafter to characterize the effects of C10, DMSO, and/or sham on treatment of NAFLD for the period of 16 weeks post-initiation of C10, DMSO, and sham administration. The period of time for which treatment is administered will be extended to 24 weeks if no effect of C10 administration on treatment of NAFLD is observed. The following Table further illustrates the experimental design: […]
NAFLD is evaluated in the liver of the HFD mice macroscopically, microscopically, and molecularly. […] Then, the liver of each mouse is split in half, wherein one half is used for microscopic analysis of NAFLD and the remaining half is used for molecular analysis of NAFLD (i.e., quantification of triglycerides). Quantification of triglycerides is performed in accordance with the general protocol described in Example 1.

The test system of the next assay is patient having NAFLD. The assay is described as follows: Therapeutic use of phenylmethimazole to treat NAFLD (Example 5). The assay is classed as in vivo, human. Particulars: once daily oral dose of 3 mg/kg for 16 weeks, contemplated result. The protocol: Experimental Protocol. A patient having NAFLD is prescribed phenylmethimazole to reduce the fat content in their liver. After determination of a baseline level of fat content in their liver, the patient takes a once daily oral dose of 3 mg/kg of body weight of phenylmethimazole for a period of 16 weeks, during which fat content in their liver tissue is determined via liver function testing, liver ultrasound, and liver biopsy.

As to `Cn1c(-c2ccccc2)cnc1S` [phenylmethimazole, 5-Phenylmethimazole], the “fatty liver disease, macroscopically observed in liver tissue” value in the assay on C57BL/6J mice on the HFD (ip 0.1 mg/kg, 1 mg/kg or 10 mg/kg once daily for 18 weeks, compared to HFD mice with sham injection or DMSO) is reported as “much less fatty liver disease despite obesity”. The “triglyceride concentration in liver tissue (FIG. 4)” value in the assay with C57BL/6J mice on the HFD (ip 1 mg/kg or 10 mg/kg once daily for 18 weeks, compared to HFD mice with no phenylmethimazole) is listed as “lower triglyceride concentration”. In addition, the “prevention of NAFLD” value in the assay on C57BL/6J mice on the HFD (ip 0.1, 1, 10 mg/kg once daily for 18 weeks) was “prevented NAFLD in the mice fed the HFD in a dose-dependent manner”. Besides, in the assay with C57BL/6J mice on the HFD (ip 0.1, 1 or 10 mg/kg once daily for 18 weeks, compared to HFD mice with sham injection or DMSO), the “fatty liver disease, microscopic observation of liver tissue (FIG. 3(B)-(D))” value is reported as “much less fatty liver disease”. Moreover, the “excess accumulation of fat in the liver” value in assay [1] is “no excess accumulation of fat has occurred”. The “fat content in the liver tissue of the mice” value in assay [2] is listed as “reduced relative to a baseline level”. In addition, in the assay on patient having NAFLD, the “fat content in the patient's liver” value was “reduced relative to the baseline level”.
